In PubChem BioAssay (NCI):
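Briefly, cells in 96-well plates were exposed to five compound concentrations for 48 h, and endpoints were estimated by linear interpolation. TGI: total growth inhibition.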

Experiments:
Experiment in all cases: growth of human tumour cells (NCI), 48 h
786-0 renal = test system: 786-0 renal
A498 renal = test system: A498 renal
A549 NSCLC = test system: A549 NSCLC
ACHN renal = test system: ACHN renal
BT-549 breast = test system: BT-549 breast
CAKI-1 renal = test system: CAKI-1 renal
CCRF-CEM leukemia = test system: CCRF-CEM leukemia
COLO 205 colon = test system: COLO 205 colon
DU-145 prostate = test system: DU-145 prostate
EKVX NSCLC = test system: EKVX NSCLC
HCC-2998 colon = test system: HCC-2998 colon
HCT-116 colon = test system: HCT-116 colon
HCT-15 colon = test system: HCT-15 colon
HL-60(TB) leukemia = test system: HL-60(TB) leukemia
HOP-62 NSCLC = test system: HOP-62 NSCLC
HOP-92 NSCLC = test system: HOP-92 NSCLC
HS 578T breast = test system: HS 578T breast
HT29 colon = test system: HT29 colon
IGROV1 ovarian = test system: IGROV1 ovarian
K-562 leukemia = test system: K-562 leukemia
KM12 colon = test system: KM12 colon
LOX IMVI melanoma = test system: LOX IMVI melanoma
M14 melanoma = test system: M14 melanoma
MALME-3M melanoma = test system: MALME-3M melanoma
MCF7 breast = test system: MCF7 breast
MDA-MB-231 breast = test system: MDA-MB-231 breast
MDA-MB-435 = test system: MDA-MB-435
MDA-N = test system: MDA-N
MOLT-4 leukemia = test system: MOLT-4 leukemia
NCI-H226 lung = test system: NCI-H226 lung
NCI-H23 lung = test system: NCI-H23 lung
NCI-H460 lung = test system: NCI-H460 lung
NCI-H522 lung = test system: NCI-H522 lung
NCI/ADR-RES ovarian = test system: NCI/ADR-RES ovarian
OVCAR-3 ovarian = test system: OVCAR-3 ovarian
OVCAR-4 ovarian = test system: OVCAR-4 ovarian
OVCAR-5 ovarian = test system: OVCAR-5 ovarian
OVCAR-8 ovarian = test system: OVCAR-8 ovarian
PC-3 prostate = test system: PC-3 prostate
RPMI-8226 leukemia = test system: RPMI-8226 leukemia
RXF 393 renal = test system: RXF 393 renal
SF-268 CNS = test system: SF-268 CNS
SF-295 CNS = test system: SF-295 CNS
SF-539 CNS = test system: SF-539 CNS
SK-MEL-2 melanoma = test system: SK-MEL-2 melanoma
SK-MEL-28 melanoma = test system: SK-MEL-28 melanoma
SK-MEL-5 melanoma = test system: SK-MEL-5 melanoma
SK-OV-3 ovarian = test system: SK-OV-3 ovarian
SN12C renal = test system: SN12C renal
SNB-19 CNS = test system: SNB-19 CNS
SNB-75 CNS = test system: SNB-75 CNS
SR leukemia = test system: SR leukemia
SW-620 colon = test system: SW-620 colon
T-47D breast = test system: T-47D breast
TK-10 renal = test system: TK-10 renal
U251 CNS = test system: U251 CNS
UACC-257 melanoma = test system: UACC-257 melanoma
UACC-62 melanoma = test system: UACC-62 melanoma
UO-31 renal = test system: UO-31 renal

Cc1ccc(-c2cc(-c3cc(-c4ccc(C)cc4C)n[nH]3)[nH]n2)c(C)c1
TGI (786-0 renal): 26.2 µM | TGI (A498 renal): 34.1 µM | TGI (A549 NSCLC): > 52.4 µM | TGI (ACHN renal): 24.4 µM | TGI (BT-549 breast): 42.7 µM | TGI (CAKI-1 renal): 36.2 µM | TGI (CCRF-CEM leukemia): 8.45 µM | TGI (COLO 205 colon): > 62 µM | TGI (DU-145 prostate): 33.1 µM | TGI (EKVX NSCLC): 46 µM | TGI (HCC-2998 colon): 28.9 µM | TGI (HCT-116 colon): 33 µM | TGI (HCT-15 colon): 44.8 µM | TGI (HL-60(TB) leukemia): 0.0792 µM | TGI (HOP-62 NSCLC): 30.2 µM | TGI (HOP-92 NSCLC): 39 µM | TGI (HS 578T breast): 44.6 µM | TGI (HT29 colon): 35.1 µM | TGI (IGROV1 ovarian): 28.6 µM | TGI (K-562 leukemia): 37.4 µM | TGI (KM12 colon): 49 µM | TGI (LOX IMVI melanoma): 38.4 µM | TGI (M14 melanoma): 40.3 µM | TGI (MALME-3M melanoma): 25 µM | TGI (MCF7 breast): 38.8 µM | TGI (MDA-MB-231 breast): 32.8 µM | TGI (MDA-MB-435): 31.1 µM | TGI (MDA-N): 34.1 µM | TGI (MOLT-4 leukemia): 36.8 µM | TGI (NCI-H226 lung): 42.9 µM | TGI (NCI-H23 lung): 41.9 µM | TGI (NCI-H460 lung): 21.4 µM | TGI (NCI-H522 lung): 30.3 µM | TGI (NCI/ADR-RES ovarian): 43 µM | TGI (OVCAR-3 ovarian): 26.9 µM | TGI (OVCAR-4 ovarian): 29.1 µM | TGI (OVCAR-5 ovarian): 59 µM | TGI (OVCAR-8 ovarian): 43.1 µM | TGI (PC-3 prostate): 29.2 µM | TGI (RPMI-8226 leukemia): 10.5 µM | TGI (RXF 393 renal): 32.7 µM | TGI (SF-268 CNS): 27.5 µM | TGI (SF-295 CNS): 26.5 µM | TGI (SF-539 CNS): 34 µM | TGI (SK-MEL-2 melanoma): 36.2 µM | TGI (SK-MEL-28 melanoma): 32.4 µM | TGI (SK-MEL-5 melanoma): 56.2 µM | TGI (SK-OV-3 ovarian): 29.4 µM | TGI (SN12C renal): 30.7 µM | TGI (SNB-19 CNS): 41.2 µM | TGI (SNB-75 CNS): 34.8 µM | TGI (SR leukemia): 26.5 µM | TGI (SW-620 colon): 33.1 µM | TGI (T-47D breast): > 74.4 µM | TGI (TK-10 renal): 29.4 µM | TGI (U251 CNS): 27.6 µM | TGI (UACC-257 melanoma): 26.7 µM | TGI (UACC-62 melanoma): > 62 µM | TGI (UO-31 renal): 45.7 µM

CN(CCCN(C)Cc1ccc(Cl)c(Cl)c1)CCN1CCCC1
TGI (786-0 renal): 31.6 µM | TGI (A498 renal): 28.2 µM | TGI (A549 NSCLC): > 80.9 µM | TGI (ACHN renal): > 100 µM | TGI (BT-549 breast): > 100 µM | TGI (CAKI-1 renal): > 93.5 µM | TGI (CCRF-CEM leukemia): 24.6 µM | TGI (COLO 205 colon): 33 µM | TGI (DU-145 prostate): > 100 µM | TGI (EKVX NSCLC): > 100 µM | TGI (HCC-2998 colon): 11.8 µM | TGI (HCT-116 colon): > 54.2 µM | TGI (HCT-15 colon): > 88.4 µM | TGI (HL-60(TB) leukemia): > 100 µM | TGI (HOP-62 NSCLC): 98.2 µM | TGI (HOP-92 NSCLC): > 28.3 µM | TGI (HS 578T breast): > 53.6 µM | TGI (HT29 colon): 32.2 µM | TGI (IGROV1 ovarian): > 62.8 µM | TGI (K-562 leukemia): 15 µM | TGI (KM12 colon): > 100 µM | TGI (LOX IMVI melanoma): 41.2 µM | TGI (M14 melanoma): 15.7 µM | TGI (MALME-3M melanoma): 30.9 µM | TGI (MCF7 breast): 43.6 µM | TGI (MDA-MB-231 breast): 37.3 µM | TGI (MDA-MB-435): 11.7 µM | TGI (MDA-N): 15.8 µM | TGI (MOLT-4 leukemia): 37.1 µM | TGI (NCI-H226 lung): 55.6 µM | TGI (NCI-H23 lung): > 100 µM | TGI (NCI-H460 lung): 70.5 µM | TGI (NCI-H522 lung): 37.1 µM | TGI (NCI/ADR-RES ovarian): > 100 µM | TGI (OVCAR-3 ovarian): > 100 µM | TGI (OVCAR-4 ovarian): > 100 µM | TGI (OVCAR-5 ovarian): > 86.3 µM | TGI (OVCAR-8 ovarian): > 100 µM | TGI (PC-3 prostate): > 100 µM | TGI (RPMI-8226 leukemia): 17.5 µM | TGI (RXF 393 renal): 67.9 µM | TGI (SF-268 CNS): > 93.5 µM | TGI (SF-295 CNS): 53.9 µM | TGI (SF-539 CNS): 45.1 µM | TGI (SK-MEL-2 melanoma): 26.4 µM | TGI (SK-MEL-28 melanoma): 4.6 µM | TGI (SK-MEL-5 melanoma): 19.5 µM | TGI (SK-OV-3 ovarian): > 100 µM | TGI (SN12C renal): > 100 µM | TGI (SNB-19 CNS): > 100 µM | TGI (SNB-75 CNS): 81.7 µM | TGI (SR leukemia): 31.9 µM | TGI (SW-620 colon): > 100 µM | TGI (T-47D breast): > 80.6 µM | TGI (TK-10 renal): > 82.7 µM | TGI (U251 CNS): 47 µM | TGI (UACC-257 melanoma): 7.18 µM | TGI (UACC-62 melanoma): 3.67 µM | TGI (UO-31 renal): 10 µM
